Patent publication US9474755B2, “GLP-1 receptor modulators” (Receptos, Inc., priority 2014, dated 2016)

Each molecule was assayed against T1, GLP-1R (Homo sapiens, UniProt P43220) (assay: EC20 GLP-1(9-36) PAM cAMP Assay: dose response of compound in the presence of fixed concentration of GLP-1(9-36)). Conditions: GLP-1R CRE-bla CHO-K1 cells, in presence of fixed concentration of GLP-1(9-36), 30 min at 37° C.
T1 construct: host or cells: CRE-bla CHO-K1
T1 sequence (P43220 24-463): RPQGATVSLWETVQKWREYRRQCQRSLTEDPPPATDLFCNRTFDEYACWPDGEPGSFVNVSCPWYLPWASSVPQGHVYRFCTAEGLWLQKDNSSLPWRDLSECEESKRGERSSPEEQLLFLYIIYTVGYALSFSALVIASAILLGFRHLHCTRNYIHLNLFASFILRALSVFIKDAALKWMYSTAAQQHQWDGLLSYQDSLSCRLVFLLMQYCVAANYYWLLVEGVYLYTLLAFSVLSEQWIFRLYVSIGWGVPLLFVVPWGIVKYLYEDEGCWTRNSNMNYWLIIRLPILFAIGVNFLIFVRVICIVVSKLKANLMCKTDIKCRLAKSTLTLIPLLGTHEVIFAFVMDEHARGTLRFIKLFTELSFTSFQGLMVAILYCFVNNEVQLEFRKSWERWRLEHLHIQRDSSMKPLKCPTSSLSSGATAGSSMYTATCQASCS
T1 sequence (P01275 100-127 partner limits assumed): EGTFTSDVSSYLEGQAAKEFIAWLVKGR
Format: cell-based
Procedure: EC20 GLP-1(9-36) PAM cAMP Assay: Dose Response of Compound in the Presence of Fixed Concentration of GLP-1 (9-36).
GLP-1R CRE-bla CHO-K1 cells cultured in growth medium (DMEM-High glucose, 10% dialyzed FBS, 0.1 mM NEAA, 25 mM Hepes, 100 U/mL penicillin/100 μg/mL streptomycin, 5 μg/mL Blasticidin, 600 μg/mL Hygromycin) were trypsinized and plated in suspension into 384 well white flat bottom plates at 5000 cells/well in 12 μL assay buffer (Hanks Balanced Salt solution, 10 mM Hepes, 0.1% BSA, 10 pH 7.4). A 5× compound dose response curve (12-point) was generated in assay buffer containing 1.5 mM IBMX, 4% DMSO. GLP-1(9-36) was diluted to 4.2 μM in assay buffer containing 1.5 mM IBMX and 4% DMSO. The 5× compound dose response was added (3 μL), followed by 0.5 μL of GLP-1(9-36) and cells were incubated for 30 min at 37° C. Direct detection of cAMP was carried out using DiscoveRx HitHunter cAMP kit according to manufacturer's instructions and luminescence was read using a SpectraMax M5 plate reader. Luminescence was converted to total cAMP using a cAMP standard curve and data was analyzed by non-linear regression to determine the EC50 and Emax.
In the case of CCCC1CCC(C2CC=C(c3cnc(-c4ccc(CC(NC(=O)c5ccc(C(C)(C)C)s5)C(=O)N5CC(C(=O)O)C5)cc4)nc3)CC2)CC1C (stereo not drawn) [Compound 85], the EC50 is reported as < 500 nM.
With CC(C)CC1CCC(C2CC=C(c3cnc(-c4ccc(C[C@H](NC(=O)c5ccc(C(C)(C)C)s5)C(=O)N5CC(C(=O)O)C5)cc4)nc3)CC2)CC1 (stereo partly drawn) [Compound 86] the EC50 was < 500 nM.
In the case of CCC[C@H]1CC[C@H](C2CC=C(c3cnc(-c4ccc(C[C@H](NC(=O)c5ccc(C(C)(C)C)s5)C(=O)N5CC(C(=O)O)C5)cc4)nc3)C(C)C2)CC1 (stereo partly drawn) [Compound 87], the EC50 is reported as < 500 nM.
COCC1CCC(C2CC=C(c3cnc(-c4ccc(CC(NC(=O)c5ccc(C(C)(C)C)s5)C(=O)N5CC(C(=O)O)C5)cc4)nc3)CC2)CC1 (stereo not drawn) [Compound 88] was tested, and the EC50 was < 500 nM.
In the case of CCC[C@H]1CC[C@H](C2CCC(c3cnc(-c4ccc(C[C@H](NC(=O)c5ccc(C(C)(C)C)s5)C(=O)N5CC(C(=O)O)C5)cc4)nc3)=C(C)C2)CC1 (stereo partly drawn) [Compound 89], the EC50 is reported as < 500 nM.
With CC1(C)CCC(C2CC=C(c3cnc(-c4ccc(C[C@H](NC(=O)c5ccc(C(C)(C)C)s5)C(=O)N5CC(C(=O)O)C5)cc4)nc3)CC2)CC1 (stereo partly drawn) [Compound 90] the EC50 was < 500 nM.
With CCc1ccc(C(=O)N[C@@H](Cc2ccc(-c3ncc(C4=CCC([C@H]5CC[C@H](C)CC5)CC4)cn3)cc2)C(=O)N2CC(C(=O)O)C2)s1 (stereo partly drawn) [Compound 91] the EC50 was < 500 nM.
For CCc1ccc(C(=O)N[C@@H](Cc2ccc(-c3ncc(C4=CCC(C5CCC(C)(C)CC5)CC4)cn3)cc2)C(=O)N2CC(C(=O)O)C2)s1 (stereo partly drawn) [Compound 92], the EC50 was < 500 nM.
CCc1ccc(C(=O)N[C@@H](Cc2ccc(-c3ncc(C4=CCC([C@H]5CC[C@H](CC)CC5)CC4)cn3)cc2)C(=O)N2CC(C(=O)O)C2)s1 (stereo partly drawn) [Compound 93] was tested, and the EC50 was < 500 nM.
CC[C@H]1CC[C@H](C2CC=C(c3cnc(-c4ccc(C[C@H](NC(=O)c5ccc(C(C)(C)C)cc5)C(=O)N5CC(C(=O)O)C5)cc4)nc3)CC2)CC1 (stereo partly drawn) [Compound 94] was tested, and the EC50 was < 500 nM.
In the case of CC[C@H]1CC[C@H](C2CC=C(c3cnc(-c4ccc(C[C@H](NC(=O)c5ccc(OC(C)(C)C)cc5)C(=O)N5CC(C(=O)O)C5)cc4)nc3)CC2)CC1 (stereo partly drawn) [Compound 95], the EC50 is reported as 500 to 2500 nM.
For CC[C@H]1CC[C@H](C2CC=C(c3cnc(-c4ccc(C[C@H](NC(=O)c5ccc(CC(C)C)s5)C(=O)N5CC(C(=O)O)C5)cc4)nc3)CC2)CC1 (stereo partly drawn) [Compound 96], the EC50 was < 500 nM.
In the case of CC[C@H]1CC[C@H](C2CC=C(c3cnc(-c4ccc(C[C@H](NC(=O)c5ccc(C6CC6)s5)C(=O)N5CC(C(=O)O)C5)cc4)nc3)CC2)CC1 (stereo partly drawn) [Compound 97], the EC50 is reported as < 500 nM.
With CC[C@H]1CC[C@H](C2CC=C(c3cnc(-c4ccc(C[C@H](NC(=O)c5ccc(C(F)(F)F)s5)C(=O)N5CC(C(=O)O)C5)cc4)nc3)CC2)CC1 (stereo partly drawn) [Compound 98] the EC50 was < 500 nM.
CC[C@H]1CC[C@H](C2CC=C(c3cnc(-c4ccc(C[C@H](NC(=O)c5ccccc5)C(=O)N5CC(C(=O)O)C5)cc4)nc3)CC2)CC1 (stereo partly drawn) [Compound 99] showed an EC50 of 500 to 2500 nM.
In the case of CC[C@H]1CC[C@H](C2CC=C(c3cnc(-c4ccc(C[C@H](NC(=O)c5ccc(C(F)(F)F)cc5)C(=O)N5CC(C(=O)O)C5)cc4)nc3)CC2)CC1 (stereo partly drawn) [Compound 100], the EC50 is reported as < 500 nM.
In the case of CCC(C)(C)c1ccc(C(=O)N[C@@H](Cc2ccc(-c3ncc(C4=CCC([C@H]5CC[C@H](CC)CC5)CC4)cn3)cc2)C(=O)N2CC(C(=O)O)C2)cc1 (stereo partly drawn) [Compound 101], the EC50 is reported as < 500 nM.
Molecule CC[C@H]1CC[C@H](C2CC=C(c3cnc(-c4ccc(C[C@H](NC(=O)c5ccc(CC(C)C)cc5)C(=O)N5CC(C(=O)O)C5)cc4)nc3)CC2)CC1 (stereo partly drawn) [Compound 102] has an EC50 of 500 to 2500 nM.
For CC[C@H]1CC[C@H](C2CC=C(c3cnc(-c4ccc(C[C@H](NC(=O)c5ccc(C(C)C)s5)C(=O)N5CC(C(=O)O)C5)cc4)nc3)CC2)CC1 (stereo partly drawn) [Compound 103], the EC50 was < 500 nM.
For CC[C@H]1CC[C@H](C2CC=C(c3cnc(-c4ccc(C[C@H](NC(=O)c5ccc(C6CC6)cc5)C(=O)N5CC(C(=O)O)C5)cc4)nc3)CC2)CC1 (stereo partly drawn) [Compound 104], the EC50 was < 500 nM.
In the case of CC[C@H]1CC[C@H](C2CC=C(c3cnc(-c4ccc(C[C@H](NC(=O)c5ccc(C(C)(C)C)s5)C(=O)N5CCC[C@H]5C(=O)O)cc4)nc3)CC2)CC1 (stereo partly drawn) [Compound 105], the EC50 is reported as < 500 nM.
CC[C@H]1CC[C@H](C2CC=C(c3cnc(-c4ccc(C[C@H](NC(=O)c5ccc(C(C)(C)C)s5)C(=O)N[C@H](C)C(=O)O)cc4)nc3)CC2)CC1 (stereo partly drawn) [Compound 106] was tested, and the EC50 was < 500 nM.
For CC[C@H]1CC[C@H](C2CC=C(c3cnc(-c4ccc(C[C@H](NC(=O)c5ccc(C(C)(C)C)s5)C(=O)NCCC(=O)O)cc4)nc3)CC2)CC1 (stereo partly drawn) [Compound 107], the EC50 was < 500 nM.
In the case of CC[C@H]1CC[C@H](C2CC=C(c3cnc(-c4ccc(C[C@H](NC(=O)c5ccc(C(C)(C)C)s5)C(=O)NCC5CCNC5)cc4)nc3)CC2)CC1 (stereo partly drawn) [Compound 108], the EC50 is reported as 500 to 2500 nM.
CC[C@H]1CC[C@H](C2CC=C(c3cnc(-c4ccc(C[C@H](NC(=O)c5ccc(C(C)(C)C)s5)C(=O)N5CC[C@H](C(=O)O)C5)cc4)nc3)CC2)CC1 (stereo partly drawn) [Compound 110, (S)-1-((S)-2-(5-(tert-butyl)thiophene-2-carboxamido)-3-(4-(5-((1RS,1′r,4′RS)-4′-ethyl-[1,1′-bi(cyclohexan)]-3-en-4-yl)pyrimidin-2-yl)phenyl)propanoyl)pyrrolidine-3-carboxylic acid] was tested, and the EC50 was < 500 nM.
In the case of CC(C)(C)c1ccc(C(=O)N[C@@H](Cc2ccc(-c3ncc(C4=CCC([C@H]5CC[C@H](C)CC5)CC4)cn3)cc2)C(=O)N2CCC[C@H]2C(=O)O)s1 (stereo partly drawn) [Compound 111], the EC50 is reported as < 500 nM.
In the case of C[C@@H](NC(=O)[C@H](Cc1ccc(-c2ncc(C3=CCC([C@H]4CC[C@H](C)CC4)CC3)cn2)cc1)NC(=O)c1ccc(C(C)(C)C)s1)C(=O)O (stereo partly drawn) [Compound 112], the EC50 is reported as < 500 nM.
For CC(C)(C)c1ccc(C(=O)N[C@@H](Cc2ccc(-c3ncc(C4=CCC([C@H]5CC[C@H](C)CC5)CC4)cn3)cc2)C(=O)NCCC(=O)O)s1 (stereo partly drawn) [Compound 113], the EC50 was < 500 nM.
CC(C)(C)c1ccc(C(=O)N[C@@H](Cc2ccc(-c3ncc(C4=CCC([C@H]5CC[C@H](C)CC5)CC4)cn3)cc2)C(=O)NCC2CCNC2)s1 (stereo partly drawn) [Compound 114] showed an EC50 of 500 to 2500 nM.
With CC(C)(C)c1ccc(C(=O)N[C@@H](Cc2ccc(-c3ncc(C4=CCC([C@H]5CC[C@H](C)CC5)CC4)cn3)cc2)C(=O)NS(C)(=O)=O)s1 (stereo partly drawn) [Compound 115] the EC50 was < 500 nM.
In the case of CC(C)(C)c1ccc(C(=O)N[C@@H](Cc2ccc(-c3ncc(C4=CCC([C@H]5CC[C@H](C)CC5)CC4)cn3)cc2)C(=O)N2CC[C@H](C(=O)O)C2)s1 (stereo partly drawn) [Compound 116], the EC50 is reported as < 500 nM.
With CCC[C@H]1CC[C@H](C2CC=C(c3cnc(-c4ccc(C[C@H](NC(=O)c5ccc(C6CC6)s5)C(=O)N5CC(C(=O)O)C5)cc4)nc3)CC2)CC1 (stereo partly drawn) [Compound 117] the EC50 was < 500 nM.
CCC[C@H]1CC[C@H](C2CC=C(c3cnc(-c4ccc(C[C@H](NC(=O)c5ccc(CC(C)C)s5)C(=O)N5CC(C(=O)O)C5)cc4)nc3)CC2)CC1 (stereo partly drawn) [Compound 118] was tested, and the EC50 was < 500 nM.
With CC[C@H]1CC[C@H](C2CC=C(c3cnc(-c4ccc(C[C@H](NC(=O)c5ccc(C(C)(C)C)s5)C(=O)O)cc4)nc3)CC2)CC1 (stereo partly drawn) [Compound 119] the EC50 was 500 to 2500 nM.
With CC(C)(C)c1ccc(C(=O)N[C@@H](Cc2ccc(-c3ncc(C4=CCC(C5CCCCC5)CC4)cn3)cc2)C(=O)O)s1 (stereo partly drawn) [Compound 120] the EC50 was 500 to 2500 nM.
For CCCc1ccc(C2CC=C(c3cnc(-c4ccc(C[C@H](NC(=O)c5ccc(C(C)(C)C)s5)C(=O)O)cc4)nc3)CC2)cc1 (stereo partly drawn) [Compound 121], the EC50 was < 500 nM.
Molecule CC1(C)CCC(C2CC=C(c3cnc(-c4ccc(C[C@H](NC(=O)c5ccc(C(C)(C)C)s5)C(=O)O)cc4)nc3)CC2)CC1 (stereo partly drawn) [Compound 122] has an EC50 of 500 to 2500 nM.
In the case of CCCC1CCC(C2CC=C(c3cnc(-c4ccc(C[C@@H](NC(=O)c5ccc(C(C)(C)C)s5)C(=O)N5CC(C(=O)O)C5)cc4)nc3)CC2)CC1 (stereo partly drawn) [Compound 124], the EC50 is reported as 500 to 2500 nM.
With CC[C@H]1CC[C@H](C2CCC(c3cnc(-c4ccc(C[C@H](NC(=O)c5ccc(C(C)(C)C)s5)C(=O)N5CC(C(=O)O)C5)cc4)nc3)CC2)CC1 (stereo partly drawn) [Compound 125] the EC50 was 500 to 2500 nM.
